Here are results for 4 molecules from patent publication US12415939B2, “Nano-adhesive and surface primer compound and use thereof” (The Regents of the University of California, priority 2015, dated 2025).

Structures are written as SMILES. Where “and” joins values, the source holds several entries; their conditions need not be identical. Equal values may be shown once.

Data set [1] can be described thus: Lap shear test of cured PMA resin on primed mica. The settings on record: first value of each pair (mica). The method, then:
(§1) 1 wt % primer solution was spread on mica, glass, tooth enamel, or a silicon wafer and incubated for 1 min, followed by thorough washing with methanol (for MDP, P1-P3) or DMSO (for P4) and drying by flowing nitrogen. The surfaces were exposed to a basic aqueous solution (pH 9, using sodium hydroxide), incubated for 1 min, and drying by flowing nitrogen (see FIG. 52). The methacrylic comonomer blend (Bis-GMA, TEGDMA, DMAEMA and CQ) was packed in a gelatin capsule (size #4, 5-mm diameter, Torpac Inc.) and placed up on top of the primer-treated substrates. The comonomer blend was cured (or crosslinked) for 1 min using a portable dental curing lamp (Foshan Liang Ya Dental Co., LY-A180, 420-480 nm, 1200-2000 mW·cm^−2) (see FIG. 53). Uniaxial compression was applied to the capsule at a rate of 0.05 inch min^−1 using a materials testing system (MTS Bionix 200) until the capsules are separated from the substrate. The lap shear fracture measurements were repeated at least 10 times for each condition.

A short description of data set [2]: Lap shear test of cured PMA resin on primed silica/glass. The settings on record: second value of each pair (silica). Here is the method:
as §1

A short description of data set [3]: Lap shear test of cured PMA resin on primed tooth enamel. On the set-up: species or system human. The method, then:
as §1

A short description of data set [4]: SFA adhesion of cured PMA resin between primer-treated mica surfaces. The settings on record: for adhesion pressure Pad: n=5. The method, then:
Atomically-smooth muscovite mica sheets were freshly cleaved (thickness of 2-5 μm) and attached on another large freshly cleaved mica backing sheet under a laminar flow hood and placed in a desiccator for clean storage. To ensure use of a fresh surface for each experiment, mica was peeled away from the backing sheet and glued on cylindrical disks using an epoxy glue (EPON 1004 F® from Exxon Chemicals). In each experiment, the mica surfaces were treated with one of the primer solutions, as described for the lap shear experiments, and then mounted in the SFA in a cross cylindrical geometry. In contrast to typical SFA experiments, which use an interferometric method to calculate the disk-disk separation distances and thus the interaction forces, in the SFA used here for adhesion testing, the disk separations were directly measured using semiconductor strain-gauged double cantilever springs (k=1000-10000 N/m)(see FIG. 67). After separating the surfaces, 100 […]1 of comonomer blend was injected between the two surfaces. Then, ˜600 mN of load was applied, followed by visible light curing for 1 min using the portable dental curing lamp (see FIG. 54G). Adhesion strength of cured polymer toward the mica was measured by detaching (unloading) two surfaces. All loading and unloading were performed using a coarse micrometer at the velocity of […]. The SFA measurements were repeated at least 5 times for each condition.

Data set [5] deals with L929 mammalian fibroblast cells. The experiment in a line: Cell viability assay on surface treated glass (ISO 10993). Format: cell-based. The settings on record: primed glass surface, 3 days, trypan blue. The method, then: L929 mammalian fibroblast cells were purchased from the Korean Cell Line Bank (Seoul, Korea) and cultured in Roswell Park Memorial Institute (RPMI) 1640 media (Life Technologies) with 10% fetal bovine serum, 25 mM sodium bicarbonate and 1% penicillin-streptomycin. Silane-grafted and Catechol (P3) primed glass slides were prepared by following procedures described in section 6 and 3, respectively. Each glass substrate was placed on the 100π cell culture plate and sterilized by 70% ethanol solution. After equilibrated in phosphate buffered saline (PBS) and media for 5 min each, L929 cells were seeded onto the glass substrates at a density of 1×10^6 cells per plate. Cells were incubated for 3 days in 5% CO2 at 37° C. After 3 days, the substrates were transferred to new culture plates and washed extensively with PBS. Cells were then detached by 0.05% trypsin-EDTA and stained with trypan blue solution to assess cell viability. Living cells are impermeable to the stain, whereas dead cells with compromised membranes turn blue. The number of live cells was counted using a standard hemocytometer. The bare glass slide without any modification served as a control (FIGS. 56A-56B).

A short description of data set [6]: QCM-D adsorption of primers. It is filed as physicochemical. The settings on record: for mass loss during rinsing: of initial mass. The method, then:
A ‘static cell’ (often called ‘Open Module’) QCM-D (Q-Sense, Biolin Scientific) was employed to quantitatively evaluate the adsorption of each primer onto SiO2 surface using a quartz sensor (QSX 303, Biolin Scientific). Changes in resonance frequency (ΔF) and dissipation (ΔD) of the SiO2 were recorded and used to measure the adsorbed mass and layer viscoelasticity, respectively, of the primer deposited on the sensor. In detail, pure solvent (100 μl) was dropped onto the sensor and equilibrated for ˜20-30 min. Then, 2 wt % primer solution (100 μl) was dropped onto the sensor (this is labeled “Solution Drop-in” in FIG. 51) and equilibrated until the frequency and dissipation signals stabilized. To remove unbound primers, the sensor was rinsed with solvents (this is labeled “Solvent Rinsing” in FIG. 51) and equilibrated until frequency and dissipation signals stabilized.
Mass loss of P3 and P4 during the rinsing was negligible compared to P2 which lost 60% of initial mass, indicating outstanding adsorption efficiency of catechol-containing primers on SiO2 surfaces even compared to mussel foot protein adsorption (˜30% loss of mfp-3s^3). The priming thickness of P4 estimated by QCM-D is ˜3.1 nm which agrees with the average height of AFM images (˜3.5 nm), assuming that QCM-D measures the average thickness of a uniform layer. The smaller average thickness of P4 (˜3.1 nm) compared to the molecular contour length (˜4.8 nm) may be attributed to the flexible alkyl spacer in P4. The possibility of a softer, more flexible layer with P4 is supported by a higher change in dissipation (ΔD) compared to other primers.

Data set [7] is described as follows: AFM height profiles of adsorbed primers. The settings on record: for adsorption seen by AFM: 1 wt.% solution, mica and glass; for AFM height: mica. It is filed as physicochemical. The method, then:
Each primer solution (1 wt %) was prepared in methanol (for P1-P3) or DMSO (for P4). The primer solution was drop cast onto a freshly cleaved mica or glass surface, and kept at room temperature for 1 min. Subsequently, the surfaces were thoroughly rinsed with the respective solvents and dried with argon. All images, surface profiles and surfaces roughnesses were collected using an Asylum MFP-3D standard system (Asylum Research, Santa Barbara, CA) using silicon cantilevers (FORTGG-50, Applied NanoStructures, Santa Clara, CA) (FIGS. 48C and 49).

Data set [8] in a line: Surface forces apparatus (SFA) cohesion/adhesion between thin films on mica. Format: physicochemical. The settings on record: symmetric films adsorbed from 5 mM, DI water, mica. Here is the method:
The interaction between two surfaces can be measured with nano-Newton level force resolution and Angstrom level resolution in the separation distance between the surfaces. The details of the SFA techniques have been describe in a work by Israelachvili et al. In a typical SFA experiment (FIG. 2C), the distance and the force between the surfaces are measured simultaneously. To begin with, the instrument is calibrated at large separation distances. When the two surfaces are not interacting, i.e., they are separated by large distances, the change in the separation between them is equal to the distance through which the motor moves the lower surface towards or away from the upper surface (or the upper surface driven by the piezo-tube moves towards the lower surface). However, once the surfaces are close enough to start interacting with each other, the measured separation distance deviates from the expected separation calibrated when there is no force between the surfaces. This deviation is due to the deflection of the double cantilever spring and is directly proportional to the force acting normally between the two opposing surfaces. Thus the normal force can be measured using Hooke's law, F=kΔx, where k is the spring constant of the double-cantilever spring and Δx=Dactual−Dapplied is the deflection of the spring, determined by taking the difference between the applied change in position of one of the surfaces Dapplied and the actual change in distance measured between the surfaces Dactual. The actual distance, Dactual, between the surfaces can be measured by multiple beam interferometry (MBI) and will be discussed below.
The distance between the surfaces, shape of the interface and the refractive index of the media between the surfaces can be accurately determined by Multiple Beam Interferometry (MBI) technique. In this technique, white light is directed through two back-silvered mica surfaces (or uniform and same thickness). As a white light passes between the mica surfaces, it undergoes interference due to the optical trap set up by the back silver on each of these surfaces giving rise to discrete wavelengths of light (FIG. 2C). These wavelengths of light are resolved in a spectrometer creating interference fringes known as ‘fringes of equal chromatic order’ (FECO). Since mica is birefringent, the FECO appears as doublets and termed as β and γ. Alternate fringes are termed as odd and even fringes with odd fringes having nodes at the center and even fringes with anti-nodes in the center. The FECO is then recorded on a camera and analyzed to determine the distance between the surfaces using the following equations: […]
The adhesion/cohesion energy of the synthetic zwitterionic molecules was investigated in SFA (SurForce LLC, Santa Barbara, CA). Two molecularly smooth freshly cleaved back silvered mica surfaces glued on cylindrical silica discs of radius of curvature, R˜2 cm, were mounted in the SFA and 50 μL of a colloidal dispersion of the synthetic molecules in DI water were injected between the surfaces at different concentrations (C=0.5-5 mM) and the forces between the thin films of the molecules were measured by Multiple Beam Interferometry (MBI). The adhesion forces between Z-Cat-C10 molecules on various surfaces, e.g., silica and copper, were also measured by AFM (MFP-3D, Asylum research, Goleta, CA) in DI water and ambient conditions, respectively, at room temperature. AFM probes with a silicon dioxide particle (10, 5, and 1 μm, respectively) on a silicon nitride (SN) cantilever-0.6 N m^−1 were purchased from Novascan Technologies, Inc (Ames, IA). Cantilever spring constants were measured for each force run. Images of Z-Cat-C10 coating on silicon wafer and copper plates were visualized in an AFM. […]

The nature of data set [9]: Stability of isolated compound over time (NMR observation). It is filed as physicochemical. The settings on record: after isolation. The method, then:
Attempts to increase the level of purity by either recrystallization or HPLC were unsuccessful and the compound was used “as is” for further study. It is recommended that extra care is taken to ensure that this compound be protected from atmospheric oxygen, and be used and analyzed immediately after isolation. […] Reaction time=4 days (96 hours) 69% isolated yield.

Data set [10] can be described thus: Contact angle measurements on SAM-modified substrates. The settings on record: SAM-modified nano-grooved SiO2. It is filed as physicochemical. Here is the method: The nano-grooved SiO2 substrates passivated with Z-Cat-Ben or Z-Cat-Ben-F SAMs were prepared with the same procedure described above. For the reference substrate, the pre-cleaned and ultraviolet/ozone-treated (for 10 min) nano-grooved SiO2 substrate was passivated with n-decyltrichlorosilane (Gelest Inc.) in toluene solution (1% by volume) at 80° C. for 20 min in ambient air. Then, the substrate was subsequently sonicated in toluene and rinsed with additional toluene several times. Anhydrous chlorobenzene (50 μL) was used as a droplet dropping on the substrates. All contact angle images were taken at the direction perpendicular to nano-grooves in the substrates using Dataphysics OCA 15EC goniometer.

For data set [11] the following is noted: n-DTS-modified nano-grooved SiO2, earlier reports; cited from earlier work.

Regarding `C=CC(=O)OCC(O)Cc1ccc(O)c(O)c1` (centres unmarked) [P3, 3-(3,4-dihydroxyphenyl)-2-hydroxypropyl acrylate], the “lap shear strength σshear,max” value in data set [1] is given as 0.8±0.2 MPa. Besides, the “lap shear strength σshear,max” value in data set [2] is 4.2±0.7 MPa. Moreover, in data set [3], the “lap shear strength σshear,max” value amounted to 3.0±0.3 MPa. In [4], the “Pad relative to MDP primer” value is around 8 times; the “Pad relative to Silane primer” value is on record as around 2 times; the “increase in adhesion vs plain mica (no primer)” value is reported as around 10 fold; the “adhesion pressure Pad” value is 201.5±50.2 kPa and ~200 kPa. Also, the contact cytotoxicity result in [5] was “non-toxicity was confirmed”. Moreover, in data set [6], the “thickness from QCM-D” value is listed as around 1.6 nm and the “mass loss during rinsing” value is given as “negligible”. In data set [7], the “adsorption seen by AFM” value is given as “densely primed” and the AFM height is listed as 1-2 nm.
Take `C=CC(=O)OCCCCCCCCOC(=O)CCc1ccc(O)c(O)c1` [P4, 8-((3-(3,4-dihydroxyphenyl)propanoyl)oxy)octyl acrylate]: the “lap shear strength σshear,max” value in [1] is recorded as 0.9±0.1 MPa. In data set [2], the “lap shear strength σshear,max” value was 4.5±0.5 MPa. Moreover, the “lap shear strength σshear,max” value in data set [3] is reported as 3.0±0.3 MPa. For the same molecule, in data set [4], the “increase in adhesion vs plain mica (no primer)” value was around 4 fold and the “adhesion pressure Pad” value is given as 81.7±18.5 kPa. In [6], the “thickness from QCM-D” value is recorded as around 3.1 nm and the “mass loss during rinsing” value is given as “negligible”. In addition, in data set [6] (Sauerbrey, after rinsing), the “surface concentration of adsorbed layer” value worked out at 345 ng/cm^2. Besides, in data set [7], the “adsorption seen by AFM” value is reported as “densely primed” and the AFM height is around 3.5 nm.
For the molecule `C[N+](C)(CCCc1ccc(O)c(O)c1)CCOP(=O)([O-])OCCCc1ccc(O)c(O)c1` [Z-Cat-Cat], the “cohesion (or adhesion) energy Wc” value in data set [8] is recorded as 8.1±1.3 mJ m^−2. For the same molecule, the stability over time result in data set [9] was “highly susceptible to degradation over time”.
In the case of `CCCCCCCCCC[Si](Cl)(Cl)Cl` [n-DTS, n-decyltrichlorosilane, reference compound], in [10], the “contact angle θ of chlorobenzene droplet” value is “≈ 31 °”. Also, the saturation hole mobilities in [11] is on record as 23-58 cm^2 V^−1 s^−1.
